The text below walks through data of patent US20250115615A1, “Solid Forms of 3-(5-Fluorobenzofuran-3-yl)-4-(5-methyl-5H-[1,3]dioxolo[4,5-f]indol-7-yl)pyrrole-2,5-dione” (Actuate Therapeutics Inc., priority 2017, published 2025).

What all share (format): physicochemical
A short description of data set [1]: Solubility study, 24 hour (HPLC of filtrate, XRPD of remaining solids). The following applies: for solubility at 24 h: thermodynamic from solid. On the procedure:
9-ING-41, either Form I or Form II, was added to 1 mL of each of 10 different solvents in a vial to make a suspension. The samples were shaken at 2000 rpm in a shaker at room temperature for 24 hours. Mixtures were visually examined to ensure saturation. After 24 hours, 1 mL of suspension was filtered through a 0.45 um nylon micro-filtration membrane into another clear glass vial, respectively. The filtrate was analyzed by HPLC and the remaining solids were analyzed using XRPD.

The nature of data set [2]: Solubility study, 1 hour (Form II added to Form I-saturated filtrates). The conditions noted are these: for solubility at 24 h / solubility at 1 h: thermodynamic from solid; for solubility at 24 h: Form I suspension shaken 24 hours, room temperature; for Crystal form of remaining solids (XRPD): 1 hour; for solubility at 1 h: excess Form II added to Form I-saturated filtrate, shaken 1 hour. On the procedure: Step 1: A sufficient amount of Form I was added to 1 mL solvent (EtOH, Labrasol, Benzyl Benzoate, Benzyl Alcohol, PEG400: Tween80: EtOH (75:8:17) and PEG300:BzOH: Water (65:10:25)) to make a suspension. The samples were shaken at 2000 rpm in a shaker at room temperature for 24 hours.
Step 2: The vials were visually examined to ensure saturation. 1 mL of suspension was filtered at 24 hours through a 0.45 μm nylon micro-filtration membrane into another clean clear glass vial. The filtrate was analyzed by HPLC.
Step 3: Excess Form II was added to the 6 residual filtrates from Step 2 to make a suspension, respectively. The samples were shaken at 2000 rpm in a shaker for 1 hour. The suspensions were filtered after 1 hour through a 0.45 μm nylon micro-filtration membrane into another clean glass vial. The filtrate was analyzed by HPLC and the remaining solids were analyzed using XRPD.

The nature of data set [3]: Solubility in sesame oil (visual estimate). The conditions noted are these: for visual result: 24 hours, room temperature; for Estimated solubility: sesame oil, stirred 24 hours at room temperature, visual examination. On the procedure:
The solubility of 9-ING-41 in sesame oil cannot be measured by HPLC. The solubility was estimated by adding weighed portions of Form I (or Form II) into sesame oil. The samples were stirred for 24 hours at room temperature and the vials were visually examined to ensure dissolution.

The nature of data set [4]: Mechanical and pressure effects on crystal form (XRPD). As to the method: 10.0 mg of Form II was weighed into mortar and ground for 5 min. The remaining solid was collected and analyzed by XRPD. […] 4.50 mg of Form II was compressed into tablet. The tablet was then ground into powder and analyzed by XRPD.
Setting [5] is: organic solvent or mixture, PEG400:Tween80:EtOH (75:8:17).

≈ marks a conversion by molar mass, not a printed value.

Usually solubility stands for the dissolved amount per volume that the medium holds. Usually Solubility stands for the dissolved amount per volume that the medium holds. The low end stands for a poorly soluble substance, the high end for a readily soluble substance. For `Cn1cc(C2=C(c3coc4ccc(F)cc34)C(=O)NC2=O)c2cc3c(cc21)OCO3` [Form I], the solubility at 24 h amounted to 1.27 mg/mL (≈ 3.15 mM) in data set [1] (EtOH, organic solvent or mixture, room temperature); 60.5 mg/mL (≈ 150 mM) in data set [1] (Labrasol, oil or lipid, room temperature); 5.09 mg/mL (≈ 12.6 mM) in data set [1] (PEG300:BzOH:Water (65:10:25), aqueous with cosolvent or surfactant or cyclodextrin, PEG300:BzOH:Water (65:10:25), room temperature); 96.5 mg/mL (≈ 239 mM) in data set [1] (PEG400, organic solvent or mixture, PEG400, room temperature); 72.8 mg/mL (≈ 180 mM) in data set [1] (PEG400:Tween80:EtOH (75:8:17), organic solvent or mixture, PEG400:Tween80:EtOH (75:8:17), room temperature); 24 mg/mL (≈ 59.5 mM) in data set [1] (benzyl alcohol, organic solvent or mixture, room temperature). Besides, the solubility at 24 h in data set [1] (benzyl benzoate, organic solvent or mixture, room temperature) is 53 mg/mL (≈ 131 mM); in data set [1] (dimethyl acetamide, organic solvent or mixture, room temperature), more than 100 mg/mL; in data set [2] (aqueous with cosolvent or surfactant or cyclodextrin, PEG300:BzOH:Water (65:10:25)), 4.96 mg/mL (≈ 12.3 mM); in data set [2] (oil or lipid, Labrasol) it was 61.4 mg/mL (≈ 152 mM); in data set [2] (organic solvent or mixture, Benzyl Alcohol), 22.3 mg/mL (≈ 55.2 mM); in data set [2] (organic solvent or mixture, Benzyl Benzoate) it was 48.3 mg/mL (≈ 119 mM). For the same compound, the solubility at 24 h turned out to be 1.26 mg/mL (≈ 3.11 mM) in data set [2] (organic solvent or mixture, EtOH) and 73.4 mg/mL (≈ 182 mM) in data set [2] (setting [5]). The Solubility entry in data set [1] (Water, room temperature) was “Not detected”. In addition, in data set [1] (all experiments with Form I as starting material), the “Crystal form of remaining solids (XRPD)” value was “remained Form I”. Further, the visual result is “Incomplete” in data set [3] (1.00 mg in 3464.12 mg sesame oil) and “dissolution” in data set [3] (1.00 mg in 5997.92 mg sesame oil). Also, in data set [3], the Estimated solubility was 0.167 to 0.289 µg/mg.

As to `Cn1cc(C2=C(c3coc4ccc(F)cc34)C(=O)NC2=O)c2cc3c(cc21)OCO3` [Form II, 3-(5-fluorobenzofuran-3-yl)-4-(5-methyl-5H-[1,3]dioxolo[4,5-f]indol-7-yl) pyrrole-2,5-dione], the “Crystal form after compression (XRPD)” value in data set [4] (4.50 mg compressed into tablet, then ground into powder) is reported as “no effect on the crystalline form”. Also, the “Crystal form after grinding (XRPD)” value in data set [4] (10.0 mg ground in mortar for 5 min) is on record as “remained Form II”. Besides, the Solubility was 30.553 mg/mL (≈ 75.6 mM) in data set [1] (Benzyl Alcohol, room temperature); 73.265 mg/mL (≈ 181 mM) in data set [1] (Benzyl Benzoate, room temperature); more than 100 mg/mL in data set [1] (Dimethyl Acetamide, room temperature); 0.903 mg/mL (≈ 2.23 mM) in data set [1] (EtOH, room temperature); 68.455 mg/mL (≈ 169 mM) in data set [1] (Labrasol, room temperature); 9.410 mg/mL (≈ 23.3 mM) in data set [1] (PEG300:BzOH:Water (65:10:25), room temperature). In addition, the Solubility is more than 100 mg/mL in data set [1] (PEG400, room temperature); 90.418 mg/mL (≈ 224 mM) in data set [1] (PEG400:Tween80:EtOH (75:8:17), room temperature); “Not detected” in data set [1] (Water, room temperature). The “Crystal form of remaining solids (XRPD)” value in data set [1] (ethanol experiment) is reported as “the remaining solids were a solvate”; in data set [1] (the other experiments (not water, sesame oil, ethanol)), “the solids appeared to be Form I”; in data set [1] (water and sesame oil experiments), “the remaining solids were Form II”; in data set [2] (EtOH and PEG300:BzOH:Water (65:10:25)), “did not change”; in data set [2] (Labrasol, Benzyl Benzoate, Benzyl Alcohol, PEG400:Tween80:EtOH (75:8:17)) it was “rapidly converts to Form I”. Also, the solubility at 1 h in data set [2] (filtrate saturated with Form I, aqueous with cosolvent or surfactant or cyclodextrin, PEG300:BzOH:Water (65:10:25)) came to 10.2 mg/mL (≈ 25.3 mM); in data set [2] (filtrate saturated with Form I, oil or lipid, Labrasol), 87 mg/mL (≈ 215 mM); in data set [2] (filtrate saturated with Form I, organic solvent or mixture, Benzyl Alcohol), 39.9 mg/mL (≈ 98.6 mM); in data set [2] (filtrate saturated with Form I, organic solvent or mixture, Benzyl Benzoate), 71.8 mg/mL (≈ 178 mM); in data set [2] (filtrate saturated with Form I, organic solvent or mixture, EtOH), 2.55 mg/mL (≈ 6.3 mM); in data set [2] (setting [5]), 106 mg/mL (≈ 262 mM). Also, the figures for the visual result in data set [3] (0.90 mg in 1214.50 mg sesame oil) and in data set [3] (3.18 mg in 2638.01 mg sesame oil) were “dissolution” and “Incomplete”, respectively. In addition, in data set [3], the Estimated solubility is 0.741 to 1.21 µg/mg.
